This experiment has as its target T1, Recombinant human CBP containing the bromodomain (CBP-BD (1043-1159)) (Homo sapiens, UniProt Q92793).
T1 construct: Recombinant human CBP bromodomain (CBP-BD (1043-1159)); made in house; host or cells: E. coli BL21-CodonPlus (DE3), modified pET vector
Description: CBP Alphascreen binding assay. The settings on record: read-out: CREBBP (CBP) IC50. The procedure, abridged: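 Buffer: 50 mM HEPES pH 7.5, 50 mM NaCl, 0.01% BSA, 0.01% Triton X-100, 2 mM DTT. The signal was normalised to plate controls and fitted with a four-parameter curve to give IC50.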
In general terms: In Alpha technology, singlet oxygen from a donor bead excites a nearby acceptor bead.

T1 sequence (Q92793 1081-1197): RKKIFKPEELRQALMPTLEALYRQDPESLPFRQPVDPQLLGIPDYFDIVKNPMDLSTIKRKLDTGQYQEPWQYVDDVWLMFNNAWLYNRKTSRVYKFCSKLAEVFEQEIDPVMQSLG

The term IC50 denotes the point on the concentration scale where inhibition reaches its midpoint. As to `Cc1noc(C)c1-c1cnc2c(Cc3ccccn3)cn(-c3ccc(C(=O)O)cc3OC(F)(F)F)c2c1` [P-0159, 4-(6-(3,5-dimethylisoxazol-4-yl)-3-(pyridin-2-ylmethyl)-1H-pyrrolo[3,2-b]pyridin-1-yl)-3-(trifluoromethoxy)benzoic acid], the IC50 lay in the range of 0.1 to 1000 nM.

On to `Cc1noc(C)c1-c1cnc2c(-c3cnn(C)c3)c(C(F)(F)F)n([C@@H](C)c3ccccn3)c2c1` [P-0160, (S)-3,5-dimethyl-4-(3-(1-methyl-1H-pyrazol-4-yl)-1-(1-(pyridin-2-yl)ethyl)-2-(trifluoromethyl)-1H-pyrrolo[3,2-b]pyridin-6-yl)isoxazole], for which the IC50 was in the range of 0.1 to 1000 nM.

In the case of `Cc1noc(C)c1-c1cnc2c(-c3cccc(CC(=O)O)c3)c(C(F)(F)F)n([C@@H](C)c3ccccn3)c2c1` [P-0161, (S)-2-(3-(6-(3,5-dimethylisoxazol-4-yl)-1-(1-(pyridin-2-yl)ethyl)-2-(trifluoromethyl)-1H-pyrrolo[3,2-b]pyridin-3-yl)phenyl)acetic acid], the IC50 fell in the range of 0.1 to 1000 nM.

For `Cc1noc(C)c1-c1cnc2c(-c3cccc(C(=O)O)c3)c(C(F)(F)F)n([C@@H](C)c3ccccn3)c2c1` [P-0162, (S)-3-(6-(3,5-dimethylisoxazol-4-yl)-1-(1-(pyridin-2-yl)ethyl)-2-(trifluoromethyl)-1H-pyrrolo[3,2-b]pyridin-3-yl)benzoic acid], the 50% inhibitory concentration (IC50) fell in the range of 0.1 to 1000 nM.

Take `Cc1noc(C)c1-c1cnc2c(C(O)(C3CC3)C3CC3)cn(-c3ccc(C(=O)O)cc3OC(F)(F)F)c2c1` [P-0163, 4-(3-(dicyclopropyl(hydroxy)methyl)-6-(3,5-dimethylisoxazol-4-yl)-1H-pyrrolo[3,2-b]pyridin-1-yl)-3-(trifluoromethoxy)benzoic acid]: the IC50 lay in the range of 0.1 to 1000 nM.

For `Cc1noc(C)c1-c1cnc2c(-c3cc(C(=O)O)ccc3Cl)cn(C(C)(c3ccccn3)c3ccccn3)c2c1` [P-0164, 4-chloro-3-(1-(1,1-di(pyridin-2-yl)ethyl)-6-(3,5-dimethylisoxazol-4-yl)-1H-pyrrolo[3,2-b]pyridin-3-yl)benzoic acid], the 50% inhibitory concentration (IC50) fell in the range of 0.1 to 1000 nM.

Consider `CCOc1cc(C(=O)O)cc(OCC)c1-n1cc(C(O)(C2CC2)C2CC2)c2ncc(-c3c(C)noc3C)cc21` [P-0165, 4-(3-(dicyclopropyl(hydroxy)methyl)-6-(3,5-dimethylisoxazol-4-yl)-1H-pyrrolo[3,2-b]pyridin-1-yl)-3,5-diethoxybenzoic acid], for which the IC50 lay in the range of 0.1 to 1000 nM.

As to `Cc1noc(C)c1-c1cnc2c(-c3cc(C(=O)O)ccc3C#N)cn(C(C)(c3ccccn3)c3ccccn3)c2c1` [P-0166, 4-cyano-3-(1-(1,1-di(pyridin-2-yl)ethyl)-6-(3,5-dimethylisoxazol-4-yl)-1H-pyrrolo[3,2-b]pyridin-3-yl)benzoic acid], the IC50 was in the range of 0.1 to 1000 nM.

Turning to `C#Cc1ccccc1-c1cn(C(C)(c2ccccn2)c2ccccn2)c2cc(-c3c(C)noc3C)cnc12` [P-0167, 4-(1-(1,1-di(pyridin-2-yl)ethyl)-3-(2-ethynylphenyl)-1H-pyrrolo[3,2-b]pyridin-6-yl)-3,5-dimethylisoxazole], the IC50 is 0.1 to 1000 nM.

`CCOc1cc(C(=O)O)cc(OCC)c1-n1cc(-c2ccccc2)c2ncc(-c3c(C)noc3C)cc21` [P-0168, 4-(6-(3,5-dimethylisoxazol-4-yl)-3-phenyl-1H-pyrrolo[3,2-b]pyridin-1-yl)-3,5-diethoxybenzoic acid]: the IC50 is 0.1 to 1000 nM.

As for `Cc1noc(C)c1-c1cnc2c(-c3ccccc3C#N)cn(C(C)(c3ccccn3)c3ccccn3)c2c1` [P-0169, 2-(1-(1,1-di(pyridin-2-yl)ethyl)-6-(3,5-dimethylisoxazol-4-yl)-1H-pyrrolo[3,2-b]pyridin-3-yl)benzonitrile], the IC50 lay within 0.1 to 1000 nM.

The values are drawn from patent publication US11446287B2, “Compounds and methods for EP300 or CBP modulation and indications therefor” (Opna Immuno-Oncology SA, priority 2019, dated 2022).
